In patent publication US8461305B2, “L-fucose α1→6 specific lectin” (J-Oil Mills, Inc., priority 2008, dated 2013):
Values belong to the substance of their own block, whether it stands above or below them.

Legend:
[1] = frontal affinity chromatography (FAC), association constant to PA sugar chains having α1→6 L-fucose; format: binding; conditions: 25 degrees C.
Experimental: The following section will describe a method of calculating an association constant by frontal affinity chromatography (FAC). This method is based on the following principle. […] Then, the elution front end (front) is observed immediately. When there is an affinity with lectin, the elution of the sugar chain is delayed.
The preparation of a lectin column used in the apparatus is performed in the method as described below. 1. Purified lectin is dissolved in 0.1 to 0.2M of NaHCO3 buffer solution (pH 8.3 to 8.5). 2. The lectin is immobilized, via a lectin primary amino group, a carrier such as NHS activated sepharose. 3. Then, the lectin is blocked by Tris buffer solution including primary amine or ethanolamine for example. 4. Lectin-sepharose is suspended in 10 mM Tris buffer, including 0.8% of NaCl (pH 7.4, TBS). Then, lectin immobilized resin is filled in a miniature column (φ2 mm×10 mm, 31.4 μl). 5. The miniature column in which the lectin immobilized resin is filled is protected by a holder and the lectin column is connected to an FAC automatic analysis apparatus (FAC-1, SHIMADZU CORPORATION).
Then, the elution of the PA sugar chain from the column is detected by a fluorescence detector (excitation wavelength/fluorescence wavelength: 310 nm/380 nm).
Based on the detection data, by using the elution front end (Vo) of the sugar chain (PA rhamnose) not interacting with lectin as a reference, the delay (V−Vo) of the elution front end (V) of a sugar chain interacting with lectin is calculated as an interaction strength. Then, based on the following FAC criteria expressions, the association constant (Ka) between the sugar chain and lectin is calculated based on V−Vo and Bt. If the interaction strength (V−Vo value) and the association constant are higher, a higher affinity is caused between lectin and an L-fucose α1→6 sugar chain.
[In the formula, A means substance used for the elution, Ao means the initial concentration of the substance A, B means a immobilized ligand, V means the elution volume, Vo means the elution front end volume of the substance not interacting with the immobilized ligand B at all, Bt means an effective ligand amount, Kd means a dissociation constant (an inverse of the association constant)].
Pyridylaminated (PA) sugar chains shown in FIG. 1 and FIG. 2 were used to frontal affinity chromatography (FAC) analysis. PA sugars were purchased from TAKARA BIO INC., SEIKAGAKU BIOBUSINESS CORPORATION, and Masuda Chemical Industries co., LTD. PA sugar were also obtained by pyridylaminating, by GlycoTAG®(TAKARA BIO INC.), an unlabeled sugar chain or a sugar chain obtained by subjecting a sugar chain to enzyme digestion for example.
Lectin was dissolved in 0.2 M NaHCO3 buffer solution (pH 8.3) including 0.5 M NaCl and coupled to the NHS-activated sepharose (GE Healthcare Bioscience) by following the manufacturer's instructions. Then, lectin immobilized sepharose was suspended in 10 mM Tris buffer (pH 7.4, TBS) including […] and the resultant matter was filled in a miniature column (φ2 mm×10 mm, 31.4 μl).
Frontal affinity chromatography was performed using FAC automatic analysis apparatus (FAC-1, SHIMADZU CORPORATION). In particular, the above-prepared lectin column was inserted to a stainless steel holder and the holder was connected to FAC-1 apparatus. The flow rate and the column temperature were maintained at 0.125 ml/min and 25 degrees C., respectively. After the miniature column was equilibrated by the TBS, an excessive volume (0.5 ml to 4 ml) of a PA sugar chain (3.75 nM or 7.5 nM) was continuously inputted to the column using an automatic sampling apparatus.
The fluorescent strength of the eluate of the PA sugar (excitation wavelength of 310 nm and fluorescence wavelength of 380 nm) was monitored to measure the interaction strength [a difference of the front end eluate to the standard oligosaccharide (PA rhamnose): V−V0]. […]

glycoproteins = assay: hemagglutinating inhibition test with glycoproteins (sugar binding specificity); format: cell-based
Source text: The sugar binding specificity of lectin also can be confirmed by using erythrocytes that can be specifically agglutinated by the lectin to investigate the sugar type that may inhibit the agglutination of the erythrocytes and the concentration thereof.
Various monosaccharides, oligosaccharides, and polysaccharides shown in Table 2 and glycoproteins shown in Table 3 were subjected to hemagglutinating inhibition test to evaluate PTL of Example 1 and the SRL of Example 2 with regard to the sugar binding specificity.
On a 96 well U-bottom microtiter plate, double dilution series of 10 μl of monosaccharide, oligosaccharide, polysaccharide, and glycoprotein solutions were prepared. Then, lectin solution adjusted in advance to have titer 4 was added in an amount of 10 μl to the respective wells. Then, the plate was subjected to a still-standing at a room temperature for one hour for sensitization. Then, 10 μl of 4%-red blood cell suspension was added to the respective wells and the plate was further subjected to a still-standing at a room temperature for one hour. […] The lowest concentration showing the inhibition was assumed as the minimum inhibition concentration. The lower the minimum inhibition concentration is, the higher the specificity to lectin is.
For comparison, the sugar binding specificity was evaluated using the following commercially-available lectins: Comparison Example 1: AAL (SEIKAGAKU BIOBUSINESS CORPORATION—J-OIL MILLS, Inc.), Comparison Example 2: AOL (TOKYO CHEMICAL INDUSTRY CO., LTD.—Gekkeikan Sake Company, Ltd.), Comparison Example 3: LCA (SEIKAGAKU BIOBUSINESS CORPORATION—J-OIL MILLS, Inc.), and Comparison Example 4: PSA (SEIKAGAKU BIOBUSINESS CORPORATION—J-OIL MILLS, Inc.).

[2] = inhibitor: Bovine blood serum albumin
[3] = inhibitor: Human immune globulin A
[4] = inhibitor: Human immune globulin G
[5] = inhibitor: α1-acidic glycoprotein

Substance: Aspergillus oryzae lectin [AOL, reference compound]
association constant Ka ([1]; Sugar chain No. 015): 130000 M⁻¹
association constant Ka ([1]; Sugar chain No. 201): 120000 M⁻¹
association constant Ka ([1]; Sugar chain No. 202): 120000 M⁻¹
association constant Ka ([1]; Sugar chain No. 203): 130000 M⁻¹
association constant Ka ([1]; Sugar chain No. 401): 140000 M⁻¹
association constant Ka ([1]; Sugar chain No. 402): 160000 M⁻¹
association constant Ka ([1]; Sugar chain No. 403): 130000 M⁻¹
association constant Ka ([1]; Sugar chain No. 404): 150000 M⁻¹
association constant Ka ([1]; Sugar chain No. 405): 130000 M⁻¹
association constant Ka ([1]; Sugar chain No. 406): 110000 M⁻¹
association constant Ka ([1]; Sugar chain No. 407): 110000 M⁻¹
association constant Ka ([1]; Sugar chain No. 410): 100000 M⁻¹
association constant Ka ([1]; Sugar chain No. 413): 79000 M⁻¹
association constant Ka ([1]; Sugar chain No. 418): 63000 M⁻¹
association constant Ka ([1]; Sugar chain No. 601): 140000 M⁻¹
association constant Ka ([1]; Sugar chain No. 602): 140000 M⁻¹
minimum inhibition concentration of hemagglutination (glycoproteins; inhibitor: Asialofetuin): >250 μl/ml
minimum inhibition concentration of hemagglutination (glycoproteins; inhibitor: Asialomucin (pig)): 62.5 μl/ml
minimum inhibition concentration of hemagglutination (glycoproteins; [2]): >250 μl/ml
minimum inhibition concentration of hemagglutination (glycoproteins; inhibitor: Casein): >250 μl/ml
minimum inhibition concentration of hemagglutination (glycoproteins; inhibitor: Fetuin): >250 μl/ml
minimum inhibition concentration of hemagglutination (glycoproteins; [3]): >250 μl/ml
minimum inhibition concentration of hemagglutination (glycoproteins; [4]): >250 μl/ml
minimum inhibition concentration of hemagglutination (glycoproteins; inhibitor: Lactoferrin): >250 μl/ml
minimum inhibition concentration of hemagglutination (glycoproteins; inhibitor: Mucin (bovine)): >250 μl/ml
minimum inhibition concentration of hemagglutination (glycoproteins; inhibitor: Mucin (pig)): 62.5 μl/ml
minimum inhibition concentration of hemagglutination (glycoproteins; inhibitor: Ribonuclease): >250 μl/ml
minimum inhibition concentration of hemagglutination (glycoproteins; inhibitor: Thyroglobulin): >250 μl/ml
minimum inhibition concentration of hemagglutination (glycoproteins; inhibitor: Transferrin): >250 μl/ml
minimum inhibition concentration of hemagglutination (glycoproteins; [5]): >250 μl/ml

Substance: Lepista sordida lectin [LSL, novel lectin purified from the mushroom Lepista sordida]
association constant Ka ([1]; Sugar chain No. 015): 190000 M⁻¹
association constant Ka ([1]; Sugar chain No. 201): 230000 M⁻¹
association constant Ka ([1]; Sugar chain No. 202): 230000 M⁻¹
association constant Ka ([1]; Sugar chain No. 203): 200000 M⁻¹
association constant Ka ([1]; Sugar chain No. 401): 220000 M⁻¹
association constant Ka ([1]; Sugar chain No. 402): 150000 M⁻¹
association constant Ka ([1]; Sugar chain No. 403): 220000 M⁻¹
association constant Ka ([1]; Sugar chain No. 404): 260000 M⁻¹
association constant Ka ([1]; Sugar chain No. 405): 220000 M⁻¹
association constant Ka ([1]; Sugar chain No. 406): 160000 M⁻¹
association constant Ka ([1]; Sugar chain No. 410): 160000 M⁻¹
association constant Ka ([1]; Sugar chain No. 418): 160000 M⁻¹
association constant Ka ([1]; Sugar chain No. 602): 130000 M⁻¹

Substance: Naematoloma sublateritium lectin [NSL]
association constant Ka ([1]; Sugar chain No. 015): 36000 M⁻¹
association constant Ka ([1]; Sugar chain No. 201): 38000 M⁻¹
association constant Ka ([1]; Sugar chain No. 202): 39000 M⁻¹
association constant Ka ([1]; Sugar chain No. 203): 30000 M⁻¹
association constant Ka ([1]; Sugar chain No. 401): 51000 M⁻¹
association constant Ka ([1]; Sugar chain No. 402): 36000 M⁻¹
association constant Ka ([1]; Sugar chain No. 403): 52000 M⁻¹
association constant Ka ([1]; Sugar chain No. 404): 43000 M⁻¹
association constant Ka ([1]; Sugar chain No. 405): 50000 M⁻¹
association constant Ka ([1]; Sugar chain No. 406): 23000 M⁻¹
association constant Ka ([1]; Sugar chain No. 410): 31000 M⁻¹
association constant Ka ([1]; Sugar chain No. 418): 35000 M⁻¹
association constant Ka ([1]; Sugar chain No. 602): 19000 M⁻¹

minimum inhibition concentration of hemagglutination (glycoproteins; inhibitor: Asialofetuin): >250 μl/ml
minimum inhibition concentration of hemagglutination (glycoproteins; inhibitor: Asialomucin (pig)): >250 μl/ml
minimum inhibition concentration of hemagglutination (glycoproteins; [2]): >250 μl/ml
minimum inhibition concentration of hemagglutination (glycoproteins; inhibitor: Casein): >250 μl/ml
minimum inhibition concentration of hemagglutination (glycoproteins; inhibitor: Fetuin): >250 μl/ml
minimum inhibition concentration of hemagglutination (glycoproteins; [3]): >250 μl/ml
minimum inhibition concentration of hemagglutination (glycoproteins; [4]): >250 μl/ml
minimum inhibition concentration of hemagglutination (glycoproteins; inhibitor: Lactoferrin): >250 μl/ml
minimum inhibition concentration of hemagglutination (glycoproteins; inhibitor: Mucin (bovine)): >250 μl/ml
minimum inhibition concentration of hemagglutination (glycoproteins; inhibitor: Mucin (pig)): >250 μl/ml
minimum inhibition concentration of hemagglutination (glycoproteins; inhibitor: Ribonuclease): >250 μl/ml
minimum inhibition concentration of hemagglutination (glycoproteins; inhibitor: Thyroglobulin): 250 μl/ml
minimum inhibition concentration of hemagglutination (glycoproteins; inhibitor: Transferrin): >250 μl/ml
minimum inhibition concentration of hemagglutination (glycoproteins; [5]): >250 μl/ml
Substance: Pholiota terrestris lectin [PTL, novel L-fucose α1→6 specific lectin purified from the mushroom Pholiota terrestris]
association constant Ka to L-fucose α1→6 sugar chains ([1]; FAC): ≥ 100000 M⁻¹
association constant Ka ([1]; Sugar chain No. 015): 500000 M⁻¹
association constant Ka ([1]; Sugar chain No. 201): 460000 M⁻¹
association constant Ka ([1]; Sugar chain No. 202): 400000 M⁻¹
association constant Ka ([1]; Sugar chain No. 203): 330000 M⁻¹
association constant Ka ([1]; Sugar chain No. 401): 350000 M⁻¹
association constant Ka ([1]; Sugar chain No. 402): 200000 M⁻¹
association constant Ka ([1]; Sugar chain No. 403): 340000 M⁻¹
association constant Ka ([1]; Sugar chain No. 404): 390000 M⁻¹
association constant Ka ([1]; Sugar chain No. 405): 320000 M⁻¹
association constant Ka ([1]; Sugar chain No. 406): 220000 M⁻¹
association constant Ka ([1]; Sugar chain No. 407): 280000 M⁻¹
association constant Ka ([1]; Sugar chain No. 410): 220000 M⁻¹
association constant Ka ([1]; Sugar chain No. 413): 280000 M⁻¹
association constant Ka ([1]; Sugar chain No. 418): 220000 M⁻¹
association constant Ka ([1]; Sugar chain No. 601): 240000 M⁻¹
association constant Ka ([1]; Sugar chain No. 602): 120000 M⁻¹
